Test results reported in BindingDB's records for patent US20240299360 (Jiangsu Hengrui Pharmaceuticals, 2024).
Values joined by “and” are separate entries in the source; they are usually repeats but may differ in a detail not shown here. Identical values can stand only once.

Experiments:
[1] = target: T1, A disintegrin and metalloproteinase with thrombospondin motifs 5 (Homo sapiens, UniProt Q9UNA0); assay: In Vitro ELISA (Enzyme-Linked Immunosorbent Assay) of ADAMTS-5 Activity
T1 sequence (Q9UNA0 whole entry): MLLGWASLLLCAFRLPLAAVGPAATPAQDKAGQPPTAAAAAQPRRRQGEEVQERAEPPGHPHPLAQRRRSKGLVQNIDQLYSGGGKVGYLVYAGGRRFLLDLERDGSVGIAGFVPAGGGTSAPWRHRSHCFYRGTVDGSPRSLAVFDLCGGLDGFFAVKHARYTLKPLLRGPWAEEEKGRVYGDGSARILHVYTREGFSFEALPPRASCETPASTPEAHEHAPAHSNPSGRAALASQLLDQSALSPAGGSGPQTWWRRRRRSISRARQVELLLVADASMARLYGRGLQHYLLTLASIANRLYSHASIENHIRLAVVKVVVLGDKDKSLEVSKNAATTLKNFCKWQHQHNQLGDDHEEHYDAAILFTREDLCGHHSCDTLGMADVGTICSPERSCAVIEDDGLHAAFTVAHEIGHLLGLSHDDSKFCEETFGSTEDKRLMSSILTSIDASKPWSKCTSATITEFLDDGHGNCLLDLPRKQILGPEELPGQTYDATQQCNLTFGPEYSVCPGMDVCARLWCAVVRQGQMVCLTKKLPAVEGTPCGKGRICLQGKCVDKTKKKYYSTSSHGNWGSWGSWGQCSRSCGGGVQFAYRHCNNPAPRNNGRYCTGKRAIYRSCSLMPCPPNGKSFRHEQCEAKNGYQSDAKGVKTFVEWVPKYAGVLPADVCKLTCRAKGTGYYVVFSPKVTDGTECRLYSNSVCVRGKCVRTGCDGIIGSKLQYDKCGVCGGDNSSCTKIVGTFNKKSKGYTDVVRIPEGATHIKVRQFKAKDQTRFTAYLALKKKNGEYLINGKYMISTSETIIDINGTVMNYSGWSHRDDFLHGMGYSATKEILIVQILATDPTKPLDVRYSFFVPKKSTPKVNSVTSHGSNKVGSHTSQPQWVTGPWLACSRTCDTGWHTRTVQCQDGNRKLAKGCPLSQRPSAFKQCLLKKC
Protocol: Table 2: In this assay, the enzymatic activity of recombinant ADAMTS-5 protein (catalog #2198-AD, R&D Systems) was assayed with a protein substrate, the aggrecan IGD protein. The aggrecan IGD protein is a polypeptide connecting human aggrecan globular domains 1 and 2 (T331-G458) expressed in E. Coli with a C-terminal His-tag (catalog #30411000, BIOTEZ). The enzymatic product ARGSVIL-peptide was detected using an ELISA kit from BioTEZ (catalog #30510111). An assay buffer containing 50 mM HEPES pH 7.5, 100 mM NaCl, 5 mM CaCl2), 0.1% CHAPS and 5% Glycerol was prepared. Recombinant ADAMTS-5 protein was diluted to 0.3 nM in the assay buffer. […] and 10 μl of compound solution was transferred to each well of a 96-well plate and incubated at room temperature for 15 minutes. Substrate aggrecan-IGD was diluted to 100 nM with the assay buffer and 20 μl was added to each well. The plate was incubated at 37° C. for 45 minutes. After incubation, the newly generated epitope ARGSVIL-peptides were measured using the Aggrecanase Activity ELISA Assay Kit following the manufacturer's instructions. Then, 100 μl of stop solution was added and the absorbance of each well was read at 450 nm, using […] as reference on a TECAN plate reader.

[2] = target: T2, A disintegrin and metalloproteinase with thrombospondin motifs 4 (Homo sapiens, UniProt O75173); assay: In Vitro Fluorescence Assay of ADAMTS-4 or ADAMTS-5 Activity
T2 sequence (O75173 whole entry): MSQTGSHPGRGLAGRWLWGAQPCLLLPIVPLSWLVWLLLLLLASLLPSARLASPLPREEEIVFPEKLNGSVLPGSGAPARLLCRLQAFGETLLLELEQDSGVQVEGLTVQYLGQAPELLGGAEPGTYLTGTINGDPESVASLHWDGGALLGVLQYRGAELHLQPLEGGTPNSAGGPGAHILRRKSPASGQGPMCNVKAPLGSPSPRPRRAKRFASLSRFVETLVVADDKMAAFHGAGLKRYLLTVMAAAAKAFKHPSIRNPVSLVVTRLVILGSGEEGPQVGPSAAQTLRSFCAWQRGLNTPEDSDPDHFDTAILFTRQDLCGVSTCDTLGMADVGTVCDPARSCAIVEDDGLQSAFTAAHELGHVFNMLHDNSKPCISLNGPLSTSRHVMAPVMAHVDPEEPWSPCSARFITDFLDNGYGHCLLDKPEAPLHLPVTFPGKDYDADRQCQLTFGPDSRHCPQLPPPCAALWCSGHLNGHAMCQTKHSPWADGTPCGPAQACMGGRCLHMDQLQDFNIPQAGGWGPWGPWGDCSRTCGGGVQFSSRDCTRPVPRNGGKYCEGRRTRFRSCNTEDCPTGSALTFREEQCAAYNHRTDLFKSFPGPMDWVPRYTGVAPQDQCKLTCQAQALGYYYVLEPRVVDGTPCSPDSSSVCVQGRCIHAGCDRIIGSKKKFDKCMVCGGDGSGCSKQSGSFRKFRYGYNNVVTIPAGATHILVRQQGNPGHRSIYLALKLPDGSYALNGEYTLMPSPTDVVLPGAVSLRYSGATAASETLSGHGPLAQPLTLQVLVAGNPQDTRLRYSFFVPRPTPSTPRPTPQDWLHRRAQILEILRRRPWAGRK
Protocol: Table 1: A FRET (fluorescence resonance energy transfer) peptide was cleaved by recombinant ADAMTS-4 or ADAMTS-5 proteins into two separate fragments resulting in an increase of fluorescence signal which was quantified. The peptide was 5-FAM-TEGEARGSVILLK(5-TAMRA)K-NH2, customized from ANASPEC. ADAMTS-4 recombinant protein (catalog #4307-AD) and ADAMTS-5 recombinant protein (catalog #2198-AD) were purchased from R&D Systems. An assay buffer containing 50 mM HEPES pH 7.5, 100 mM NaCl, 5 mM CaCl2, 0.1% CHAPS and 5% Glycerol was prepared. A volume of 2.5 μl of compound in the assay buffer was dispensed to a 384-well plate, and 2.5 μl of ADAMTS-4 or ADAMTS-5 protein (final concentration in the reaction was 10 nM) was added. The compounds and proteins were pre-incubated at room temperature for 15 minutes. Then, 5 μl of substrate was added to each well. The final substrate concentrations for ADAMTS-4 and ADAMTS-5 were 15 μM and 8 μM, respectively. The fluorescence signal in each well was determined, after incubation at 37° C. for 3 hours, on a TECAN plate reader (Excitation, 490 nm; Emission, 520 nm).

IC50 [1]: 26 nM and 83 nM | IC50 [2]: 20 nM
Structure (SMILES): CC(C[C@@]1(C2CC2)NC(=O)NC1=O)C(=O)N1Cc2cc(Cl)c(Cl)cc2C1C (some centres not stated) [US20240299360, Example 70]
